Results reported in paper PMC7948455, “Novel drug discovery platform for spinocerebellar ataxia, using fluorescence technology targeting β-III-spectrin” (The Journal of Biological Chemistry, 2020).
Entries after “also recorded” stand apart in the source; their conditions may differ. Read-outs that look alike come from different tables or passages of the source.

Experiments:
ABD L253P = target: T1, ABD L253P (Homo sapiens, UniProt O15020, L253P); test: Sedimentation of ABD L253P without actin (aggregation); conditions: for Effect on ABD pelleting without actin (aggregation): 10 μM Hit compound, n = 4
T1 construct: the β-III-spectrin (human) ABD residues 1 to 284; His-SUMO (cleaved yes); made in house; host or cells: E. coli BL21(DE3), vector pE-SUMOpro
T1 sequence (O15020 1-284 L253P): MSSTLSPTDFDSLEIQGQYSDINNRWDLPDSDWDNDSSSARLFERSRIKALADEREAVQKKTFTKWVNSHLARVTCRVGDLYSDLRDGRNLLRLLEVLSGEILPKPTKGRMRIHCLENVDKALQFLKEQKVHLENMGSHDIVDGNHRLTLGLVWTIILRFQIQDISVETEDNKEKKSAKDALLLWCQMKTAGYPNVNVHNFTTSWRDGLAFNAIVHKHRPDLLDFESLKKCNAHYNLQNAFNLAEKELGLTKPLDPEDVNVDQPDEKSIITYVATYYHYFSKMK
Description: In addition to a reduction in cell viability, the primary and counter screen may be sensitive to compounds that promote ABD-L253P protein aggregation. […] Our assay measuring ABD-L253P cosedimentation with actin is not sensitive to ABD aggregation, as it is designed to work under conditions where ∼90% ABD-L253P cosediments with actin. Nevertheless, we repeated these measurements in the absence of actin.
F-actin and ABD binding assays were performed as previously described ([10]). In brief, binding assays used 1 μM ABD protein, 1 μM F-actin, and 1 to 50 μM compound (as indicated) or DMSO control for a total reaction volume of 60 μl in F-buffer containing 10 mM Tris, pH 7.5, 150 mM NaCl, 0.5 mM ATP, 2 mM MgCl2, and 1 mM DTT. Following 30 min incubation at room temperature (21 °C). F-actin was pelleted using centrifugation at 100,000g at 25 °C for 30 min. Unbound ABD in the supernatant was measured following SDS-PAGE and Coomassie blue staining in accord ([10]). In addition, control cosedimentations assays that lacked actin were performed to test if compounds cause ABD aggregation. F-actin and Lifeact-mCherry binding assays were undertaken with 2 μM Lifeact-mCherry, 30 μM F-actin, and 1 to 50 μM compound (as indicated) or DMSO control for a total reaction volume of 80 μl in F-buffer. For a no-actin binding control, an assay sample with no F-actin was also set up. Binding reactions were allowed to reach equilibrium at room temperature (21 °C) for 30 min, and then F-actin was pelleted by centrifugation at 100,000g at 25 °C for 30 min. The amount of unbound Lifeact-mCherry was sampled by loading 7 μl of spin supernatant on a low-volume black bottom 384-well plate (Greiner). Amount of mCherry was determined by acquiring fluorescence spectrum peak intensity at ∼600 nm using a spectral unmixing plate reader (Fluorescence Innovations, Inc) equipped with a 532 nm laser (Laserglow Technologies, Ontario, Canada) for excitation, 532 nm long-pass filter for emission, and PMT for emission detection. The fraction of Lifeact-mCherry bound to F-actin was determined by subtracting from one the fraction of supernatant fluorescence intensity relative to the no-actin control sample:(3) Lifeactboundfraction=1−Fcompound/DMSO/FNo−actin where Fcontrol/DMSO is the peak mCherry fluorescence of assay samples containing compound or DMSO control, and Fno-actin is the peak mCherry fluorescence of assay samples that contained no F-actin.

[1] = target: T2, binding of the mutant β-III-spectrin L253P ABD to F-actin (Homo sapiens, UniProt O15020, L253P); test: Primary live-cell FRET assay (GFP-ABD-L253P + Lifeact-mCherry) in HEK293-6E cells; format: cell-based; conditions: for Shift of FRET: 10 μM; for Effect of Hit compound on primary FRET: LOPAC Hits (10 μM screen, 4SD threshold, 120 min) and dose response
T2 construct: the β-III-spectrin (human) ABD residues 1 to 284; expressed in transfected cells; host or cells: HEK293-6E (pTT5 vector, transient transfection)
T2 sequence (O15020 1-284 L253P): as above
Description: To develop a biosensor that monitors the binding of mutant L253P β-III-spectrin to actin filaments in live cells, a FRET approach was tested. A FRET donor construct consisting of green fluorescent protein fused to the N terminus of the mutant ABD (GFP-ABD-L253P) was coexpressed in HEK293-EBNA1-6E (HEK293-6E) cells with a FRET acceptor construct consisting of the actin-binding peptide, Lifeact, fused to the N terminus of red fluorescent protein, mCherry (Lifeact-mCherry). Lifeact is a 17 amino acid peptide derived from the yeast actin-binding protein, ABP140 ([15]). […] The cryo-EM structures of ABD L253P and Lifeact on actin indicate that the binding sites overlap on actin units. With ABD L253P and Lifeact bound on neighboring actin units, we predicted an average distance of ∼80 Å between GFP and mCherry (Fig. 1). With a known Förster distance R0 of 52.4 Å ([17]), this corresponds to FRET value of 0.07, a sufficient signal for a biosensor platform. To design a system most compatible for large production and eventual screening of 50,000+ compound libraries, we used HEK293-6E cells, a suspension cell line that yields greater levels (>threefold) of recombinant protein expression ([18], [19]).
With a constant amount of GFP-ABD-L253P expressed, increased Lifeact-mCherry expression increases FRET with an exponential plateau to 0.12 (Fig. 2A). To measure the nonspecific component of our FRET readout, we concurrently tested expression of mCherry in place of Lifeact-mCherry. For comparison, the Lifeact-mCherry and mCherry fluorescence intensity values (normalized to 1:1 GFP-ABD:Lifeact-mCherry sample) are plotted on the X-axis for samples transfected with different donor-to-acceptor DNA ratios. […] With the trade-off between high FRET and minimal nonspecific FRET, the donor:acceptor ratio 1:2 was chosen for the experiments that followed (Fig. 2A). […] Of note, we also tested the biosensor using WT-ABD, which yielded substantially lower FRET (Fig. S1), consistent with the 1000-fold decrease in affinity of WT-ABD for actin ([10]). We proceeded to test the compatibility of the GFP-ABD-L253P and Lifeact-mCherry assay for primary compound screening and the GFP-ABD-L253P and mCherry assay as a potential high-throughput counter screen.
To test the performance of the assay in HTS, the 1280 LOPAC compounds, together with 256 DMSO controls, were dispensed in 5 nl volumes into individual wells of 1536-well microplates and stored at −20 °C until use. To test the reproducibility of replicate screens on the same day, a single batch of HEK293 cells was transfected with GFP-ABD-L253P and Lifeact-mCherry. In addition, control cells were transfected with only GFP-ABD-L253P, to determine compound effect on donor-only lifetime (τD). To test reproducibility of the screens across different days, identical transfections were performed on another batch of HEK293-6E cells on a second day. Following plate thaw, 5 μl of assay cells were loaded in each well via a multidrop liquid dispenser, and a time course of compound effects (at 20, 120, and 180 min post load) on fluorescence lifetime was acquired using a fluorescence lifetime plate reader (FLT-PR). This technology has been advanced to high-density 1536-well plates in recent years for successful HTS using a range of protein biosensors including sarcoplasmic reticulum Ca-ATPase ([24], [25], [26], [27]), ryanodine receptor ([23], [28]), actin ([20]), tumor necrosis factor receptor 1 ([29], [30]), and tau ([31]).
At 2 × 10^6 cells/ml, HEK293-6E cells were transfected with GFP-ABD-L253P or GFP-ABD-WT (2.4 μg), Lifeact-mCherry (2.4–16.8 μg), mCherry (1.2–16.8 μg), and/or pTT5 (0.8–17.6 μg), as indicated, using the 293fectin protocol (Thermo Fisher Scientific) with 20 μg total DNA. Cells were transfected with either GFP-ABD-L253P or –WT, but coexpression of the WT and mutant isoform was not explored in this study. The cells were harvested 24 h later by centrifugation at 100g for 5 min and then washed twice with PBS. […]

| Compound | Shift of FRET [1] | Effect of Hit compound on primary FRET [1] | Effect on ABD pelleting without actin (aggregation) (ABD L253P) | Effect on ABD sedimentation without actin (ABD L253P; 1.6 μM swinholide A) | Reduction of Total FRET in primary FRET assay ([1]; 1 μM swinholide A, relative to DMSO) | EC50 ([1]; Plate A, 1536-well, read-out: EC50 of specific FRET dose response) | EC50 ([1]; Plate B, 1536-well, read-out: EC50 of specific FRET dose response) | EC50 ([1]; Plate C, 1536-well, read-out: EC50 of specific FRET dose response) | Reduction in FRET (Fig. 2B) ([1]; swinholide A (3 μM in Fig. 2B legend), relative to DMSO, n = 3) | EC50 ([1]; triplicate 12-point concentration response, 1536-well plates, read-out: EC50 of FRET reduction, average) |
| --- | --- | --- | --- | --- | --- | --- | --- | --- | --- | --- |
| O=C(O)c1cc([N+](=O)[O-])ccc1NCCCc1ccccc1 [NPPB] |  | decrease FRET | do not significantly alter |  |  |  |  |  |  |  |
| CCCCCCCC/C=C\CCCCCCCC(=O)NCc1ccc(O)c(OC)c1 [olvanil] | 2 to 14% | decrease FRET; also recorded: subtly reduced | do not significantly alter |  |  |  |  |  |  |  |
| CO[C@H]1C[C@H](CC[C@H](C)[C@H](O)[C@H](C)[C@H]2OC(=O)/C=C/C(C)=C/C[C@H](O)C[C@@H]3C=CC[C@@H](C[C@H](OC)[C@@H](C)[C@@H](O)C[C@@H](O)[C@H](C)[C@@H]([C@@H](C)[C@@H](O)[C@@H](C)CC[C@H]4C[C@H](OC)C[C@H](C)O4)OC(=O)/C=C/C(C)=C/C[C@H](O)C[C@@H]4C=CC[C@@H](C[C@H](OC)[C@@H](C)[C@@H](O)C[C@@H](O)[C@@H]2C)O4)O3)O[C@@H](C)C1 [swinholide A] |  |  |  | did not induce | > 50% | 241 nM | 284 nM | 267 nM | 56 ± 7% | 264 nM |

The next lines start with results.

| Shift of FRET [1] | Effect of Hit compound on primary FRET [1] | Compound | Effect on ABD pelleting without actin (aggregation) (ABD L253P) | Effect on ABD sedimentation without actin (ABD L253P; 1.6 μM swinholide A) | Reduction of Total FRET in primary FRET assay ([1]; 1 μM swinholide A, relative to DMSO) | EC50 ([1]; Plate A, 1536-well, read-out: EC50 of specific FRET dose response) | EC50 ([1]; Plate B, 1536-well, read-out: EC50 of specific FRET dose response) | EC50 ([1]; Plate C, 1536-well, read-out: EC50 of specific FRET dose response) | Reduction in FRET (Fig. 2B) ([1]; swinholide A (3 μM in Fig. 2B legend), relative to DMSO, n = 3) | EC50 ([1]; triplicate 12-point concentration response, 1536-well plates, read-out: EC50 of FRET reduction, average) |
| --- | --- | --- | --- | --- | --- | --- | --- | --- | --- | --- |
| 2 to 14% | decrease FRET | CC(C)(C)c1ccc(/C=C/C(=O)Nc2ccc3c(c2)OCCO3)cc1 [AMG 9810] | do not significantly alter |  |  |  |  |  |  |  |
| 2 to 14% | decrease FRET | CCOc1nc2cccc(C(=O)O)c2n1Cc1ccc(-c2ccccc2-c2nnn[nH]2)cc1 [candesartan] | trend toward increasing; also recorded: do not significantly alter |  |  |  |  |  |  |  |
